Results as given in patent US20220072009A1, “SHORT-ACTING SELECTIVE GLUCOCORTICOID RECEPTOR MODULATORS” (PANDA CONSULTING LLC, priority 2018, published 2022).

Assays:
male CD-1 mice = assay: elevated plus maze test (EPM), mouse model of stress-induced anxiety; assay type: in vivo
Method: Formula III (also referred to as PND-001) as a representative compound out of the class of SASGRMs was tested in a mouse model of stress-induced anxiety, the elevated plus maze test (EPM) (Experiment 1). The EPM relies on the inherent conflict between a rodent's tendency to explore a novel environment on one hand, and the stress of such exploration, resulting in avoidance of the aversive properties of the brightly lit open arms. Compounds that reduce anxiety specifically increase the frequency of entries into the open arms and time spent in the open arms.
Four to five week-old male CD-1 mice were group-housed (6 or 7 mice per cage) and maintained in a room with controlled temperature (21-22° C.) and a reversed light-dark cycle (12 h/12 h; lights on: 17:30-05:30; lights off: 05:30-17:30) with food and water available ad libitum.
Formula III and the vehicle (5% Dimethyl Sulfoxide (DMSO) and 95% Polyethylene Glycol 400 (PEG400)) were s.c. administrated 24 hours and 6 hours prior the EPM trial.
Diazepam was p.o. administrated 60 min prior the EPM trial as a positive control.
Formula III was tested in doses of 10, 30 and 100 mg/kg. Diazepam was p.o administrated 60 min prior the EPM trial and tested in a dose of 1 mg/kg. (see Table 1).
The mice were randomly assigned to one of the different experimental groups. Each animal was identified by its group name, cage number, series (day) of experiment, and a number (from 1 to 12) written with permanent ink on its tail.
The apparatus was a PVC maze covered with Plexiglas and subdivided into four equal exploratory arms (21×8 cm), which are all interconnected by a small platform (8×8 cm). The apparatus was placed 59 cm above the floor. Two arms are opened and two others are closed with wall (high: 21 cm).
After compound administration, mouse was placed on the platform opposite a closed arm. The number of entries and the time spent in each arm were recorded during a 5 min period. The animal was considered as entered in an arm when it places its four paws in the arm.
Analysis of variance (ANOVA) was performed on the result data. Fisher's PLSD was used for pairwise comparisons and p value ≤0.05 were considered significant.
In the next experiment in the Elevated Plus Maze Test (Experiment 2; conducted as described under the same experimental procedures and analysis as described for Experiment 1), the efficacy of Formula III (also referred to as PND001) at lower doses was studied. […] Compounds or vehicle (5% Dimethyl Sulfoxide (DMSO) and 95% Polyethylene Glycol 400 (PEG400)) were administrated s.c. 24 hours and 6 hours prior the EPM trial (Table 3).
Formula III (PND 001) was tested in doses of 1, 3 and 10 mg/kg. Formula IV (PND 002) was tested in doses of 30 mg/kg. Diazepam was p.o administrated 60 min prior the EPM trial as positive control and tested in a dose of 1 mg/kg.
In a third experiment in the Elevated Plus Maze Test (Experiment 3), conducted as described under the same experimental procedures and analysis as described for Experiment 1, the effect of the dosing route and regimen was investigated. Formula III (also referred to as PND001) and the vehicle (5% Dimethyl Sulfoxide (DMSO) and 95% Polyethylene Glycol 400 (PEG400)) were administrated by gavage (p.o.). Diazepam was i.p. administrated 30 min prior the EPM trial as positive control.
PND 001 was tested in doses of 3 mg/kg which had the highest efficacy in Experiment 2, and administrated either twice at 6 h and 1 h before the EPM trial, or given only once at 1 h before the trial. Diazepam was i.p. administrated 30 min prior the EPM trial and tested in a dose of 1 mg/kg. (see Table 5).

corticosterone = settings: mouse, in vivo, po, 30 mg/kg
MDCK cell monolayers = settings: pH 7.4
Method: BBB penetration is assessed in vitro using confluent MDCK cell monolayers and dosing of 504 of test compounds on apical and basolateral side of the monolayer at pH 7.4 for 90 min. The apparent permeability in both directions, and the efflux ratio is determined after subjecting samples to LC-MS/MS analysis.

rat hepatocytes = settings: in vitro, reported; cited from earlier work
[1] = reported, cited from earlier work
rat plasma proteins = settings: reported; cited from earlier work
human plasma proteins = settings: reported; cited from earlier work
[2] = Experiment 1, 1 mg/kg po 60 min
[3] = Experiment 2, 1 mg/kg po 60 min
[4] = Experiment 3, 1 mg/kg ip 30 min
[5] = Experiment 3, 1 mg/kg, 30 min, ip
[6] = Experiment 2, 30 mg/kg sc 24 h and 6 h
[7] = Experiment 2, 30 mg/kg, 24 + 6 h, sc

CN1C(=O)CN=C(c2ccccc2)c2cc(Cl)ccc21 [Diazepam, reference compound]
increase in number of entries to the open arms compared to vehicle treated mice (male CD-1 mice; [2]): 233% | increase in time spent in the open arms compared to vehicle treated mice (male CD-1 mice; [2]): 327% | Number of entries in the open arm, Mean (male CD-1 mice; Experiment 1, 1 mg/kg, 1 h, po): 10.0 n | Time spent in the open arm, Mean (male CD-1 mice; Experiment 1, 1 mg/kg, 1 h, po): 59.6 s | increase in number of entries into the open arms compared to vehicle treated mice (male CD-1 mice; [3]): 146% | increase in time spent into the open arms compared to vehicle treated mice (male CD-1 mice; [3]): 151% | Number of entries in the open arm, Mean (male CD-1 mice; Experiment 2, 1 mg/kg, 1 h, po): 14.0 n | Time spent in the open arm, Mean (male CD-1 mice; Experiment 2, 1 mg/kg, 1 h, po): 84.6 s | increase in number of entries into the open arms compared to vehicle treated mice (male CD-1 mice; [4]): 400% | increase in time spent into the open arms compared to vehicle treated mice (male CD-1 mice; [4]): 270% | Number of entries in the open arm, Mean (male CD-1 mice; [5]): 23.2 n | Time spent in the open arm, Mean (male CD-1 mice; [5]): 116.9 s

CC#C[C@]1(O)CCC2C3CCC4=CC(=O)CC[C@]4(Cc4ccc(C)cc4)C3=CC[C@@]21C (stereo partly drawn) [Formula I, (10R,13S,17S)-17-hydroxy-13-methyl-10-[(4-methylphenyl)methyl]-17-prop-1-ynyl-2,6,7,8,12,14,15,16-octahydro-1H-cyclopenta[a]phenanthrene-3-one]
corticosterone increase (corticosterone): not found to be significantly increased | BBB penetration potential (MDCK cell monolayers): moderate to high | half life in rat hepatocytes (rat hepatocytes): less than 0.2 h | half life in rat liver microsomes ([1]; in vitro): 19.8 min

C[C@]12CCC3C(C[C@H]4OC[C@@]35CCC(=O)C=C45)C1CC[C@@H]2C(=O)CO (some centres unmarked) [Formula II]
corticosterone increase (corticosterone): not found to be significantly increased | BBB penetration potential (MDCK cell monolayers): moderate to high

CCCCCCNC(=O)[C@@]1(O)[C@H](C)CC2[C@@H]3CCC4=CC(=O)C=C[C@]4(C)[C@@]3(F)[C@@H](O)C[C@@]21C (some centres unmarked) [Formula IV]
increase in number of entries into the open arms compared to vehicle treated mice (male CD-1 mice; [6]): 77% | increase in time spent into the open arms compared to vehicle treated mice (male CD-1 mice; [6]): 90% | Number of entries in the open arm, Mean (male CD-1 mice; [7]): 10.1 n | Time spent in the open arm, Mean (male CD-1 mice; [7]): 64.1 s | corticosterone increase (corticosterone): not found to be significantly increased | BBB penetration potential (MDCK cell monolayers): moderate to high | conversion to unidentified metabolites in rat liver microsomes (time) [1]: ≤ 30 min

C[C@]12C=CC(=O)C=C1CCC1C2OC[C@@]2(C)C1CC[C@]2(O)C(=O)CO (some centres unmarked) [Formula V]
corticosterone increase (corticosterone): not found to be significantly increased | BBB penetration potential (MDCK cell monolayers): moderate to high

CC#C[C@]1(O)CC[C@H]2[C@@H]3CCC4=CC(=O)CCC4=C3[C@@H](c3ccc(N(C)C)cc3)C[C@@]21C [mifepristone]
plasma protein binding, rat serum (rat plasma proteins): over 95% | plasma protein binding, human serum (human plasma proteins): over 95%
